In patent publication US20130071931A1, “PROCESS FOR HEPATIC DIFFERENTIATION FROM INDUCED HEPATIC STEM CELLS, AND INDUCED HEPATIC PROGENITOR CELLS DIFFERENTIATED THEREBY” (NATIONAL CANCER CENTER, priority 2011, published 2013):

Legend:
[1] = tested on: human induced hepatic stem cells AFB1-1; experiment: AFP in culture supernatant (Example 18); assay type: cell-based; settings: cell sample No. 705: A-83-01 (0.5 μM at start, 0.1 μM at medium changes)/ReproStem (bFGF-free), no feeder cells, Matrigel
[2] = tested on: human induced hepatic stem cells AFB1-1; experiment: AFP in culture supernatant (Example 13); assay type: cell-based; settings: cell sample No. 835: 0.5 μM A-83-01/ReproStem (bFGF-free), no feeder cells, Matrigel
Text: The medium was replaced everyday with a fresh human ES/iPS cell medium (mTeSR1) to continue culture until reaching 50-80% confluence per dish. […] The resultant cell sample is referred to as “No. 835”.

[3] = tested on: human induced hepatic stem cells AFB 1-1; experiment: AFP in culture supernatant, suspension (three-dimensional) culture (Examples 6-10); assay type: cell-based; settings: cell samples Nos. 473-475: suspension culture, ReproStem (bFGF-free)/Y-27632 5 μM, low-attachment plate, no feeder cells, 7 days after seeding; A-83-01 0.1 μM, OsM 10 ng/mL, DEX 0.1 μM where present
Protocol: The cell pellets were lysed in 1 mL/well of a QIAzol reagent (refer to Table 8B).
Six days after the seeding, the cells were recovered centrifugally and then suspended in 2 mL of a fresh ReproStem (bFGF-free)/Y-27632 (5 μM) supplemented with 10 ng/mL oncostatin M (OsM) and 0.1 μM dexamethasone (DEX), to continue hepatic differentiation culture in the above culture plate. […] The cell pellets were lysed in 1 mL/well of a QIAzol reagent (refer to Table 8B).

rat iPS cells = settings: added to a rat iPS cell culture medium; cited from earlier work
[4] = tested on: type I receptor for the osteogenic factor; settings: cited from earlier work
ALK 4 = settings: cited from earlier work
[5] = tested on: extracellular signal regulated kinase; settings: cited from earlier work
[6] = tested on: TGF-β induced epithelial-mesenchymal transformation; settings: cited from earlier work
p38 MAP kinase = settings: cited from earlier work
[7] = tested on: human induced hepatic stem cells AFB1-1; experiment: Quantitative RT-PCR of marker genes, hepatic differentiation on Matrigel (Examples 2-4); assay type: cell-based; settings: no feeder cells, 13 days, No. 377 taken as 1
[8] = tested on: human induced hepatic stem cells AFB1-1; experiment: Quantitative RT-PCR, differentiation with TGF-β signaling inhibitors (Example 12); assay type: cell-based; settings: cell samples Nos. 1545-1549: 0.5 μM inhibitor in ReproStem (bFGF-free), no feeder cells, Matrigel, 13 days after seeding
Protocol: The resultant cell samples are respectively referred to as “Nos. 1545-1549”. No. 1544 was cultured in the absence of any inhibitor. Nos. 1545-1549 were cultured in the presence of the following inhibitors, respectively.
Thirteen days after the seeding, the cells were lysed in 1 mL/well of a QIAzol reagent to prepare the total RNA from the cell lysate using the miRNeasy Mini Kit (Qiagen). The total RNA was subjected to quantitative RT-PCR using the iScript Advanced cDNA synthesis kit, the SsoAdvanced SYBR Green Supremix ([…]), and the CFX96 Real-Time System C1000 Thermal Cycler, all manufactured by Bio-Rad. The quantified genes were ALB, AAT, TTR, AFP, cytokeratin 7 (KRT7), cytokeratin 19 (KRT19), and DLK1 (Delta-like 1 homolog).

[9] = tested on: human induced hepatic stem cells AFB1-1; experiment: AFP in culture supernatant, collagen coat (Example 19); assay type: cell-based; settings: no feeder cells
[10] = tested on: phosphorylation of Smad2/3; settings: cited from earlier work
[11] = tested on: human induced hepatic stem cells AFB1-1; experiment: AFP in culture supernatant, hepatic differentiation on Matrigel (Examples 2-4); settings: no feeder cells, 13 days after seeding
[12] = cell sample No. 393: 0.1 μM A-83-01/mTeSR1 + 100 ng/mL bFGF
[13] = cell sample No. 394: 0.1 μM A-83-01/aFGF 10 ng/mL/ReproStem (bFGF-free)

Compound: Cc1cccc(-c2nn(C(=S)Nc3ccccc3)cc2-c2ccnc3ccccc23)n1 [A-83-01, 3-(6-methyl-2-pyridinyl)-N-phenyl-4-(4-quinolinyl)-1H-pyrazolo-1-carbothioamide]
- AFP expression level (culture supernatant) ([1]; 8 days after the seeding): 5,540 ng/mL
- AFP expression level (culture supernatant) ([1]; 13 days after the seeding): 2,320 ng/mL
- AFP yield (culture supernatant) ([2]; 6 days after the seeding): 6,430 ng/mL
- AFP yield (culture supernatant) ([2]; 13 days after the seeding): 30,900 ng/mL
- α-fetoprotein (AFP) in culture supernatant [3]: 324 ng/mL
- culture of rat iPS cells (rat iPS cells): allows uniform proliferation and prolonged culture of rat iPS cells without differentiation
- effect on type I receptor for the osteogenic factor [4]: little or no effect
- IC50 (ALK 4): 12 nM
- effect on the extracellular signal regulated kinase [5]: little or no effect
- TGF-β induced epithelial-mesenchymal transformation [6]: inhibits
- effect on p38 MAP kinase (p38 MAP kinase): little or no effect
- AAT expression level [7, 12]: 240
- AFP expression level [7, 12]: 1,791
- ALB expression level [7, 12]: 1,925
- DLK1 expression level [7, 12]: 404
- TTR expression level [7, 12]: 2,871
- AAT expression level [7, 13]: 3,812
- AFP expression level [7, 13]: 12,812
- AHSG expression level [7, 13]: 14,079
- ALB expression level [7, 13]: 45,698
- APOA4 expression level [7, 13]: 966
- DLK1 expression level [7, 13]: 804
- FABP1 expression level [7, 13]: 3,034
- FGG expression level [7, 13]: 10,138
- FOXA2 expression level [7, 13]: 0.19
- HGF expression level [7, 13]: 11
- HNF1A expression level [7, 13]: 0.88
- HNF4A expression level [7, 13]: 0.39
- KRT7 expression level [7, 13]: 37.5
- NANOG expression level [7, 13]: 0.01
- OCT3/4 (POU5F1) expression level [7, 13]: 0.07
- RBP4 expression level [7, 13]: 4,326
- SOX2 expression level [7, 13]: 0.08
- SOX17 expression level [7, 13]: 0.03
- TF expression level [7, 13]: 9,126
- TTR expression level [7, 13]: 9,113
- AAT expression Ct value [8]: 23.57
- AFP expression Ct value [8]: 17.21
- ALB expression Ct value [8]: 20.95
- DLK1 expression Ct value [8]: 18.15
- KRT7 expression Ct value [8]: 20.51
- KRT19 expression Ct value [8]: 22.05
- TTR expression Ct value [8]: 16.96
- GAPDH expression Ct value ([8]; housekeeping gene): 14.22
- AFP expression level (culture supernatant) ([9]; cell sample No. 634: 0.1 μM A-83-01/ReproStem (bFGF-free), collagen plate without Matrigel, 6 days after the seeding): 2,890 ng/mL
- AFP expression level (culture supernatant) ([9]; cell sample No. 634: 0.1 μM A-83-01/ReproStem (bFGF-free), collagen plate without Matrigel, 14 days after the seeding): 24,900 ng/mL
- AFP expression level (culture supernatant) ([9]; cell sample No. 637: 0.1 μM A-83-01/ReproStem (bFGF-free), collagen plate coated with Matrigel, 6 days after the seeding): 3,040 ng/mL
- AFP expression level (culture supernatant) ([9]; cell sample No. 637: 0.1 μM A-83-01/ReproStem (bFGF-free), collagen plate coated with Matrigel, 14 days after the seeding): 30,000 ng/mL
- phosphorylation of Smad2/3 [10]: inhibits
- α-fetoprotein (AFP) in culture supernatant [11, 12]: 3,120 ng/mL
- α-fetoprotein (AFP) in culture supernatant [11, 13]: 14,400 ng/mL
